Assay results taken from patent US4593104A, “2-halo-N-(azole-1-yl-methyl)-substituted acetanilides” (BASF Aktiengesellschaft, priority 1976, dated 1986).

Assays:
Glyc. max = assay: preemergence treatment in the greenhouse, % damage; type: in vivo, Glycine max
Text: (§1) The vessels employed were plastic flowerpots having a volume of 300 cm^3; the substrate was a sandy loam containing about 1.5% humus. The seeds of the test plants (see Table 1) were sown shallow, and separated according to species. In the case of Cyperus esculentus, pregerminated tubers were planted. In the preemergence treatment, the active ingredients were then immediately applied to the surface of the soil. They were suspended or emulsified in water as the vehicle, and sprayed through atomizing nozzles. After the agents had been applied, the vessels were lightly sprinkler-irrigated to set germination and growth going, and to activate the chemical agents. The vessels were then covered with transparent plastic hoods until the plants had taken root. This cover ensured uniform germination of the test plants (to the extent that this was not impaired by the chemicals), and prevented readily volatile substances from evaporating.
(§2) For postemergence treatment, the plants were first grown to a height of from 3 to 10 cm, depending on their habit, before treated. Hoods were not placed on the pots. The experiments were set up in the greenhouse, hotter areas (25° to 40° C.) being preferred for heat-loving species, and 15° to 30° C. for plants from moderate climates. The experiments were carried out for from 4 to 6 weeks. During this period the plants were tended and their reaction to the various treatments was assessed. The following tables contain the substances investigated, the application rates in kg/ha of active ingredient, and the test plant species. Assessments were made on a 0 to 100 scale, 0 denoting no damage or normal emergence, and 100 denoting no emergence or complete destruction of at least the visible plant parts.

Gossyp. hirs. = assay: preemergence treatment in the greenhouse, % damage; type: in vivo, Gosspyium hirsutum
Text: as §1, §2

Euph. gen. = assay: preemergence treatment in the greenhouse, % damage; type: in vivo
Text: as §1, §2

Setaria spp. [1] = assay: preemergence treatment in the greenhouse, % damage; type: in vivo
Text: as §1, §2

Echin. c.g. = assay: preemergence treatment in the greenhouse, % damage; type: in vivo
Text: as §1, §2

Matric. spp. [2] = assay: preemergence treatment in the greenhouse, % damage; type: in vivo
Text: as §1, §2

Cyp. diff. = assay: preemergence treatment in the greenhouse, % damage; type: in vivo
Text: as §1, §2

Sorgh. halep. = assay: preemergence treatment in the greenhouse, % damage; type: in vivo
Text: as §1, §2

Alopec. myosur. [3] = assay: preemergence treatment in the greenhouse, % damage; type: in vivo
Text: as §1, §2

Amar. retro. = assay: preemergence treatment in the greenhouse, % damage; type: in vivo
Text: as §1, §2

Stell. med. [4] = assay: preemergence treatment in the greenhouse, % damage; type: in vivo
Text: as §1, §2

Setaria spp. [5] = assay: postemergence application in the greenhouse, % damage; type: in vivo
Text: as §1, §2

Matric. spp. [6] = assay: as above; type: in vivo
Text: as §1, §2

Alopec. myosur. [7] = assay: as above; type: in vivo
Text: as §1, §2

Chrys. seget. = assay: as above; type: in vivo
Text: as §1, §2

Stell. med. [8] = assay: as above; type: in vivo
Text: as §1, §2

Avena fat. = assay: as above; type: in vivo
Text: as §1, §2

Cyper. escul. [9] = assay: preemergence treatment in the greenhouse, % damage; type: in vivo, Cyperus esculentus
Text: as §1, §2

Solanum nigrum = assay: preemergence treatment in the greenhouse, % damage; type: in vivo
Text: as §1, §2

Cyper. escul. [10] = assay: postemergence application in the greenhouse, % damage; type: in vivo, Cyperus esculentus
Text: as §1, §2

Sorgh. bicol. = assay: preemergence treatment in the greenhouse, % damage; type: in vivo, Sorghum bicolor
Text: as §1, §2

Beta vulg. = assay: preemergence treatment in the greenhouse, % damage; type: in vivo, Beta vulgaris
Text: as §1, §2

Zea mays = assay: preemergence treatment in the greenhouse, % damage; type: in vivo
Text: as §1, §2

For `Cc1cc(C)n(CN(C(=O)CCl)c2c(C)ccc(C)c2C)n1` [Compound 47], the “% damage” value (Glyc. max; 0.25 kg/ha) was 20%, the “% damage” value (Glyc. max; 0.5 kg/ha) was 20% and the “% damage” value (Glyc. max; 1.0 kg/ha) was 30%. The “% damage” value (Gossyp. hirs.; 0.25 kg/ha) was 0%, the “% damage” value (Gossyp. hirs.; 0.5 kg/ha) was 0% and the “% damage” value (Gossyp. hirs.; 1.0 kg/ha) was 0%. The “% damage” value (Euph. gen.; 0.25 kg/ha) was 10%, the “% damage” value (Euph. gen.; 0.5 kg/ha) was 10% and the “% damage” value (Euph. gen.; 1.0 kg/ha) was 20%. For the same compound, the “% damage” value (Setaria spp. [1]; 0.25 kg/ha) was 100%, the “% damage” value (Setaria spp. [1]; 0.5 kg/ha) was 100% and the “% damage” value (Setaria spp. [1]; 1.0 kg/ha) was 100%. For the same compound, the “% damage” value (Echin. c.g.; 0.25 kg/ha) was 95%, the “% damage” value (Echin. c.g.; 0.5 kg/ha) was 95% and the “% damage” value (Echin. c.g.; 1.0 kg/ha) was 100%. The “% damage” value (Matric. spp. [2]; 0.25 kg/ha) was 80%, the “% damage” value (Matric. spp. [2]; 0.5 kg/ha) was 90% and the “% damage” value (Matric. spp. [2]; 1.0 kg/ha) was 100%. The “% damage” value (Cyp. diff.; 0.25 kg/ha) was 100%, the “% damage” value (Cyp. diff.; 0.5 kg/ha) was 100% and the “% damage” value (Cyp. diff.; 1.0 kg/ha) was 100%. The “% damage” value (Sorgh. halep.; 0.25 kg/ha) was 85%, the “% damage” value (Sorgh. halep.; 0.5 kg/ha) was 90% and the “% damage” value (Sorgh. halep.; 1.0 kg/ha) was 95%. For the same compound, the “% damage” value (Alopec. myosur. [3]; 0.25 kg/ha) was 95%, the “% damage” value (Alopec. myosur. [3]; 0.5 kg/ha) was 100% and the “% damage” value (Alopec. myosur. [3]; 1.0 kg/ha) was 100%. For the same compound, the “% damage” value (Amar. retro.; 0.25 kg/ha) was 100%, the “% damage” value (Amar. retro.; 0.5 kg/ha) was 100% and the “% damage” value (Amar. retro.; 1.0 kg/ha) was 100%. The “% damage” value (Stell. med. [4]; 0.25 kg/ha) was 30%, the “% damage” value (Stell. med. [4]; 0.5 kg/ha) was 80% and the “% damage” value (Stell. med. [4]; 1.0 kg/ha) was 100%.
`CCc1cccc(C)c1N(Cn1cncn1)C(=O)CCl` [Compound 189] was tested, and the “% damage” value (Setaria spp. [5]; 1.0 kg/ha) was 80%, the “% damage” value (Setaria spp. [5]; 2.0 kg/ha) was 85% and the “% damage” value (Matric. spp. [6]; 1.0 kg/ha) was 30%. The “% damage” value (Matric. spp. [6]; 2.0 kg/ha) was 60%, the “% damage” value (Alopec. myosur. [7]; 1.0 kg/ha) was 70% and the “% damage” value (Alopec. myosur. [7]; 2.0 kg/ha) was 70%. The “% damage” value (Chrys. seget.; 1.0 kg/ha) was 0%, the “% damage” value (Chrys. seget.; 2.0 kg/ha) was 20% and the “% damage” value (Stell. med. [8]; 1.0 kg/ha) was 0%. The “% damage” value (Stell. med. [8]; 2.0 kg/ha) was 40%, the “% damage” value (Avena fat.; 1.0 kg/ha) was 60% and the “% damage” value (Avena fat.; 2.0 kg/ha) was 60%. For the same compound, the “% damage” value (Glyc. max; 0.5 kg/ha) was 0%, the “% damage” value (Glyc. max; 1.0 kg/ha) was 0% and the “% damage” value (Glyc. max; 2.0 kg/ha) was 0%. For the same compound, the “% damage” value (Gossyp. hirs.; 0.5 kg/ha) was 0%, the “% damage” value (Gossyp. hirs.; 1.0 kg/ha) was 20% and the “% damage” value (Gossyp. hirs.; 2.0 kg/ha) was 20%. For the same compound, the “% damage” value (Cyper. escul. [9]; 0.5 kg/ha) was 50%, the “% damage” value (Cyper. escul. [9]; 1.0 kg/ha) was 60% and the “% damage” value (Cyper. escul. [9]; 2.0 kg/ha) was 80%. For the same compound, the “% damage” value (Euph. gen.; 0.5 kg/ha) was 90%, the “% damage” value (Euph. gen.; 1.0 kg/ha) was 95% and the “% damage” value (Euph. gen.; 2.0 kg/ha) was 95%. For the same compound, the “% damage” value (Setaria spp. [1]; 0.5 kg/ha) was 75%, the “% damage” value (Setaria spp. [1]; 1.0 kg/ha) was 95% and the “% damage” value (Setaria spp. [1]; 2.0 kg/ha) was 100%. For the same compound, the “% damage” value (Echin. c.g.; 0.5 kg/ha) was 90%, the “% damage” value (Echin. c.g.; 1.0 kg/ha) was 95% and the “% damage” value (Echin. c.g.; 2.0 kg/ha) was 95%. For the same compound, the “% damage” value (Solanum nigrum; 0.5 kg/ha) was 30%, the “% damage” value (Solanum nigrum; 1.0 kg/ha) was 95% and the “% damage” value (Solanum nigrum; 2.0 kg/ha) was 95%. The “% damage” value (Amar. retro.; 0.5 kg/ha) was 30%, the “% damage” value (Amar. retro.; 1.0 kg/ha) was 95% and the “% damage” value (Amar. retro.; 2.0 kg/ha) was 95%. The “% damage” value (Cyper. escul. [10]; 1.0 kg/ha) was 65% and the “% damage” value (Cyper. escul. [10]; 2.0 kg/ha) was 65%.
For `CCc1cccc(C)c1N(Cn1ccc(C)n1)C(=O)CCl` [Compound 68], the “% damage” value (Setaria spp. [5]; 1.0 kg/ha) was 90%, the “% damage” value (Setaria spp. [5]; 2.0 kg/ha) was 95% and the “% damage” value (Matric. spp. [6]; 1.0 kg/ha) was 80%. The “% damage” value (Matric. spp. [6]; 2.0 kg/ha) was 80%, the “% damage” value (Alopec. myosur. [7]; 1.0 kg/ha) was 90% and the “% damage” value (Alopec. myosur. [7]; 2.0 kg/ha) was 90%. For the same compound, the “% damage” value (Chrys. seget.; 1.0 kg/ha) was 40%, the “% damage” value (Chrys. seget.; 2.0 kg/ha) was 50% and the “% damage” value (Stell. med. [8]; 1.0 kg/ha) was 60%. The “% damage” value (Stell. med. [8]; 2.0 kg/ha) was 60%, the “% damage” value (Avena fat.; 1.0 kg/ha) was 90% and the “% damage” value (Avena fat.; 2.0 kg/ha) was 90%. The “% damage” value (Glyc. max; 0.25 kg/ha) was 0%, the “% damage” value (Glyc. max; 1.0 kg/ha) was 0% and the “% damage” value (Glyc. max; 2.0 kg/ha) was 10%. The “% damage” value (Gossyp. hirs.; 0.25 kg/ha) was 0%, the “% damage” value (Gossyp. hirs.; 1.0 kg/ha) was 5% and the “% damage” value (Gossyp. hirs.; 2.0 kg/ha) was 5%. For the same compound, the “% damage” value (Cyper. escul. [9]; 0.25 kg/ha) was 65%, the “% damage” value (Cyper. escul. [9]; 1.0 kg/ha) was 80% and the “% damage” value (Cyper. escul. [9]; 2.0 kg/ha) was 80%. The “% damage” value (Euph. gen.; 0.25 kg/ha) was 10%, the “% damage” value (Euph. gen.; 1.0 kg/ha) was 60% and the “% damage” value (Euph. gen.; 2.0 kg/ha) was 75%. For the same compound, the “% damage” value (Setaria spp. [1]; 0.25 kg/ha) was 95%, the “% damage” value (Setaria spp. [1]; 1.0 kg/ha) was 100% and the “% damage” value (Setaria spp. [1]; 2.0 kg/ha) was 100%. The “% damage” value (Echin. c.g.; 0.25 kg/ha) was 95%, the “% damage” value (Echin. c.g.; 1.0 kg/ha) was 95% and the “% damage” value (Echin. c.g.; 2.0 kg/ha) was 95%. The “% damage” value (Solanum nigrum; 0.25 kg/ha) was 95%, the “% damage” value (Solanum nigrum; 1.0 kg/ha) was 100% and the “% damage” value (Solanum nigrum; 2.0 kg/ha) was 100%. The “% damage” value (Amar. retro.; 0.25 kg/ha) was 95%, the “% damage” value (Amar. retro.; 1.0 kg/ha) was 100% and the “% damage” value (Amar. retro.; 2.0 kg/ha) was 100%. For the same compound, the “% damage” value (Cyper. escul. [10]; 1.0 kg/ha) was 85% and the “% damage” value (Cyper. escul. [10]; 2.0 kg/ha) was 85%.
`CCc1ccccc1N(Cn1ccc(C)n1)C(=O)CCl` [Compound 69] was tested, and the “% damage” value (Glyc. max; 0.5 kg/ha) was 20%, the “% damage” value (Sorgh. bicol.; 0.5 kg/ha) was 10% and the “% damage” value (Beta vulg.; 0.5 kg/ha) was 20%. For the same compound, the “% damage” value (Setaria spp. [1]; 0.5 kg/ha) was 80%, the “% damage” value (Alopec. myosur. [3]; 0.5 kg/ha) was 100% and the “% damage” value (Amar. retro.; 0.5 kg/ha) was 95%. For the same compound, the “% damage” value (Zea mays; 0.5 kg/ha) was 0%.
`Cc1ccc(Cl)cc1N(Cn1cccn1)C(=O)CCl` [Compound 24] was tested, and the “% damage” value (Glyc. max; 2.0 kg/ha) was 10%, the “% damage” value (Sorgh. bicol.; 2.0 kg/ha) was 10% and the “% damage” value (Beta vulg.; 2.0 kg/ha) was 60%. The “% damage” value (Setaria spp. [1]; 2.0 kg/ha) was 85%, the “% damage” value (Alopec. myosur. [3]; 2.0 kg/ha) was 100% and the “% damage” value (Amar. retro.; 2.0 kg/ha) was 95%. The “% damage” value (Zea mays; 2.0 kg/ha) was 0%.
